Source: patent US20230048888A1, “USE OF TRIAZOLOTRIAZINE DERIVATIVE IN TREATMENT OF DISEASES” (ZHEJIANG VIMGREEN PHARMACEUTICALS, LTD., priority 2019, published 2023)

Tests used:
[1] = molecular target: T1, adenosine receptor A2b (Homo sapiens, UniProt P29275); test: cAMP experiment on Gs-coupled adenosine receptor A2b (HEK293); type: cell-based; details: cAMP accumulation, NECA EC80; read-out: IC50 (nM) HEK293 cells (ADORA2B)
T1 construct: host or cells: HEK293
T1 sequence (P29275 1-332): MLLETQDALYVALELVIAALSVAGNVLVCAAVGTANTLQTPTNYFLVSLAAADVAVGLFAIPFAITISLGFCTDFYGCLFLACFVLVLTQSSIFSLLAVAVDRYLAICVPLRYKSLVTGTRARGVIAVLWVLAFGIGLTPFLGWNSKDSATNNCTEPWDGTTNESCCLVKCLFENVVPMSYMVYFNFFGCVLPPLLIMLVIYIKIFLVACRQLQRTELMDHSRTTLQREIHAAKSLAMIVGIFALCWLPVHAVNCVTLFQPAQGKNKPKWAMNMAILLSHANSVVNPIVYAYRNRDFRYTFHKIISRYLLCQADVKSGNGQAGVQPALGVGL
Method: In this experiment, a HEK293 cell line stably expressing the adenosine receptor A2b was taken as a study object (PerkinElmer, ES-013-C) for the experiment. […] A solution system for cell inoculation was 10 μL of cAMP experimental buffer. […] Similarly, 10 mM test compound was also subjected to 3-fold gradient dilution in 100% DMSO. The gradient-diluted reference compound and test compound were added to a 384-well compound plate (Labcyte, PP-0200). 10 nL of the gradient-diluted reference agonist NECA per well was transferred to a test plate containing cells by using Echo (Labcyte, 550), and the test plate was incubated for 30 minutes at 37° C. 5 μL of Eu-cAMP tracer working solution and 5 μL of ULight-anti-cAMP working solution (PerkinElmer, TRF0263) were added to the test plate per well, and the test plate was incubated for 30 minutes at 25° C. […] 1000×EC80 NECA was prepared with 100% DMSO. […] The test plate was incubated for 20 minutes at 25° C., and then 10 nL of the 1000×EC80 NECA per well was transferred to the test plate. The test plate was incubated for 30 minutes at 37° C. 5 μL of Eu-cAMP tracer working solution and 5 μL of ULight-anti-cAMP working solution were added to the test plate per well, and the test plate was incubated for 30 minutes at 25° C. The fluorescence signal ratio of each well in the test plate was read, and the IC50 value of the compound was calculated by using the output data of the reference inhibitor and test compound and the concentration of the compound.

[2] = Pharmacokinetics of Compounds 27, 40, 22 and 41 in ICR mice in different modes of administration; type: in vivo; details: for Drug accumulation after consecutive oral administration: 30 mg/kg oral; for AUC(0-t) / Cmax / half-life: ICR; for AUC(0-t) / Cmax / half-life / clearance: mouse, in vivo; for clearance: IV, read-out: Cl—pred (converted)
Text: WinNonlin® 6.4 was used as the calculation software for PK parameters.

[3] = Pharmacokinetics of Compounds 22, 27 and 40 in SD rats after oral administration for 7 consecutive days; type: in vivo; details: for Accumulation after consecutive administration: SD rats; for AUC / AUC(0-t) / Cmax / Tmax: rat, plasma; for AUC / Cavg / Cmin / AUC(0-t) / Cmax / Tmax: male SD rats; for AUC(0-t) / Cmax / Tmax: male, po, 30 mg/kg; for Tmax: median
Method: 12 male SD rats (about 7-9 weeks old on the day of administration, 283.0-298.1 g) were purchased from SPF (Beijing) Biotechnology Co., Ltd. They were randomly divided into 3 groups, with 4 rats in each group, and received orally administration once daily for 7 consecutive days. Compound 27 was administrated to Group 1 at 30 mg/kg, Compound 22 was administrated to Group 2 at 30 mg/kg, and Compound 40 was administrated to Group 3 at 30 mg/kg. All animals had free access to water and diet during dosing.
0.3366 g of Compound 27, 0.3333 g of Compound 22 and 0.3366 g of Compound 40 were weighed out respectively, and dissolved in 44 mL of PEG400 with stirring and ultrasonication; 50 mL of PBS was added to the resulting mixture, stirred and sonicated for complete dissolution; PBS was added to fix the volume to the final volume of 110 mL, thereby obtaining the target formulation solution with the final concentration of 3.0 mg/mL. The prepared formulation solution was divided into 7 portions, each of 15 mL, and stored in a refrigerator at 4° C. Before administration, the formulation was held at room temperature, until its temperature returned to room temperature; the formulation was stirred at room temperature for at least 10 minutes; and the stirring continued during the administration. The entire process for preparing the formulation was operated under yellow light, and during transferring, the prepared formulation was wrapped with tin foil to protect it from light.
The concentrations of Compounds 27, 22 and 40 in the plasma of SD rats were determined by liquid chromatography-mass spectrometry, with […] as the internal standard compound. With the mass spectrometer scanning in the electrospray ion source positive ion mode, the mass-to-charge ratios of parent ions to daughter ions in Compounds 27, 40 and 22 and tolbutamide were 395.2→178.2, 404.2→158.9, 393.4→146.2 and 455.2→165.0, respectively.
The pharmacokinetic parameters of Compounds 27, 40 and 22 were calculated by the software Phoenix™ WinNonlin Version 6.1 using the non-compartmental model. Pharmacokinetic data was calculated using the linear logarithmic trapezoidal method, with a weight of 1/Y*Y. Samples with the sample concentration below the lower limit of quantification were excluded from the calculation of pharmacokinetic parameters. […] The mean time to peak (Tmax) was represented as a median.

[4] = po, 30 mg/kg, PO (after 7 consecutive days of administration), 30 mg/kg
[5] = PO (after 7 consecutive days of administration), 30 mg/kg
[6] = oral 30 mg/kg once a day for 7 consecutive days
[7] = Sprague-Dawley, oral 30 mg/kg once a day for 7 consecutive days, Day 7, mean
[8] = oral 30 mg/kg once a day for 7 consecutive days, Day 7, mean
[9] = Sprague-Dawley (SD), oral 30 mg/kg once a day, Day 1, read-out: drug exposure AUC0-t
[10] = Sprague-Dawley (SD), oral 30 mg/kg once a day, Day 1, read-out: maximum plasma concentration Cmax
[11] = Sprague-Dawley (SD), oral 30 mg/kg once a day, seventh day, read-out: drug exposure AUC0-t
[12] = Sprague-Dawley (SD), oral 30 mg/kg once a day, seventh day, read-out: maximum plasma concentration Cmax
[13] = Sprague-Dawley, oral 30 mg/kg once a day for 7 consecutive days, Day 7, mean, read-out: AUC0-t
[14] = Sprague-Dawley, oral 30 mg/kg once a day for 7 consecutive days, Day 7, mean, read-out: Cmax
[15] = Sprague-Dawley, oral 30 mg/kg once a day for 7 consecutive days, Day 7
[16] = Sprague-Dawley, oral 30 mg/kg once a day, Day 1, mean, read-out: AUC0-t
[17] = Sprague-Dawley, oral 30 mg/kg once a day, Day 1, mean, read-out: Cmax
[18] = Sprague-Dawley, oral 30 mg/kg once a day, Day 1

IC50 [1]	AUC(0-t) ([2]; iv, 1 mg/kg)	Cmax ([2]; iv, 1 mg/kg)	half-life ([2]; iv, 1 mg/kg)	AUC(0-t) ([2]; po, 5 mg/kg)	Cmax ([2]; po, 5 mg/kg)	half-life ([2]; po, 5 mg/kg)	AUC(0-t) [2, 4]	Cmax [2, 4]	half-life [2, 4]	AUC(0-t) ([2]; po, 30 mg/kg, PO (single))	Cmax ([2]; po, 30 mg/kg, PO (single))	half-life ([2]; po, 30 mg/kg, PO (single))	Cl—F—pred [2, 5]	Cl—F—pred ([2]; PO (single), 30 mg/kg)	Cl—F—pred ([2]; PO, 5 mg/kg)	F ([2]; PO, 5 mg/kg)	clearance ([2]; 1 mg/kg)	Accumulation after consecutive administration [3, 6]	SMILES	Drug accumulation after consecutive oral administration [2]	other results
307 nM	0.495 µg·h/mL	0.993 µg/mL	0.67 h	3.1 µg·h/mL	1.55 µg/mL	1.19 h	41.7 µg·h/mL	17.3 µg/mL	1.86 h	33.6 µg·h/mL	14.5 µg/mL	1.12 h	0.72 L/h/kg	0.92 L/h/kg	1.65 L/h/kg	125.29%	2.03 L/h/kg	do not show significant accumulation	COCCNc1ccc(CCNc2nc(N)n3nc(-c4ccco4)nc3n2)cc1 [Compound 27, 2-(furan-2-yl)-N5-(4-((2-methoxyethyl)amino)phenethyl)-[1,2,4]triazolo[1,5-a][1,3,5]triazine-5,7-diamine]	significant drug accumulation is not observed	AUC [3, 7]: 22.2 µg·h/mL; Cavg [3, 8]: 0.925 µg/mL; Cmin [3, 8]: 0.00923 µg/mL; AUC(0-t) [3, 9]: 29.6 µg·h/mL; Cmax [3, 10]: 7.1 µg/mL; AUC(0-t) [3, 11]: 22.2 µg·h/mL; Cmax [3, 12]: 4.62 µg/mL; AUC(0-t) [3, 13]: 22.2 µg·h/mL; Cmax [3, 14]: 4.62 µg/mL; Tmax [3, 15]: 1.5 h; AUC(0-t) [3, 16]: 29.6 µg·h/mL; Cmax [3, 17]: 7.1 µg/mL; Tmax [3, 18]: 2 h
343 nM	1.54 µg·h/mL	1.88 µg/mL	2.49 h	5.54 µg·h/mL	2.13 µg/mL	2.36 h	10.6 µg·h/mL	2.33 µg/mL	2.79 h	24.4 µg·h/mL	14.4 µg/mL	1.65 h	2.82 L/h/kg	1.23 L/h/kg	0.90 L/h/kg	71.99%	0.65 L/h/kg	do not show significant accumulation	Cn1nnc(-c2ccc(CCNc3nc(N)n4nc(-c5ccco5)nc4n3)cc2)n1 [Compound 40, N5-(4-(2-methyl-2H-tetrazol-5-yl)phenethyl)-2-(furan-2-yl)-[1,2,4]triazolo[1,5-a][1,3,5]triazine-5,7-diamine]	significant drug accumulation is not observed	AUC [3, 7]: 6.58 µg·h/mL; Cavg [3, 8]: 0.274 µg/mL; Cmin [3, 8]: 0.0523 µg/mL; AUC(0-t) [3, 9]: 5.15 µg·h/mL; Cmax [3, 10]: 0.503 µg/mL; AUC(0-t) [3, 11]: 6.58 µg·h/mL; Cmax [3, 12]: 0.581 µg/mL; AUC(0-t) [3, 13]: 6.58 µg·h/mL; Cmax [3, 14]: 0.581 µg/mL; Tmax [3, 15]: 4 h; AUC(0-t) [3, 16]: 5.15 µg·h/mL; Cmax [3, 17]: 0.503 µg/mL; Tmax [3, 18]: 3 h

SMILES	IC50 [1]	AUC(0-t) ([2]; iv, 1 mg/kg)	Cmax ([2]; iv, 1 mg/kg)	half-life ([2]; iv, 1 mg/kg)	AUC(0-t) ([2]; po, 5 mg/kg)	Cmax ([2]; po, 5 mg/kg)	half-life ([2]; po, 5 mg/kg)	AUC(0-t) [2, 4]	Cmax [2, 4]	half-life [2, 4]	AUC(0-t) ([2]; po, 30 mg/kg, PO (single))	Cmax ([2]; po, 30 mg/kg, PO (single))	half-life ([2]; po, 30 mg/kg, PO (single))	Cl—F—pred [2, 5]	Cl—F—pred ([2]; PO (single), 30 mg/kg)	Cl—F—pred ([2]; PO, 5 mg/kg)	F ([2]; PO, 5 mg/kg)	clearance ([2]; 1 mg/kg)	Accumulation after consecutive administration [3, 6]	Drug accumulation after consecutive oral administration [2]	other results
Nc1nc(NCCc2ccc(NC3COC3)cc2)nc2nc(-c3ccco3)nn12 [Compound 22, 2-(furan-2-yl)-N5-(4-(oxetan-3-ylamino)phenethyl)-[1,2,4]triazolo[1,5-a][1,3,5]triazine-5,7-diamine]	380 nM	0.925 µg·h/mL	1.69 µg/mL	0.94 h	3.96 µg·h/mL	3.51 µg/mL	2.74 h	15.4 µg·h/mL	4.8 µg/mL	3.04 h	18 µg·h/mL	9.65 µg/mL	2.22 h	1.95 L/h/kg	1.67 L/h/kg	1.26 L/h/kg	85.72%	1.09 L/h/kg	do not show significant accumulation	significant drug accumulation is not observed	AUC [3, 7]: 6.95 µg·h/mL; Cavg [3, 8]: 0.29 µg/mL; Cmin [3, 8]: 0.0114 µg/mL; AUC(0-t) [3, 9]: 6.63 µg·h/mL; Cmax [3, 10]: 1.02 µg/mL; AUC(0-t) [3, 11]: 6.95 µg·h/mL; Cmax [3, 12]: 0.947 µg/mL; AUC(0-t) [3, 13]: 6.95 µg·h/mL; Cmax [3, 14]: 0.947 µg/mL; Tmax [3, 15]: 1.5 h; AUC(0-t) [3, 16]: 6.63 µg·h/mL; Cmax [3, 17]: 1.02 µg/mL; Tmax [3, 18]: 4 h
